A short description of data set [1]: Evaluation of solvent solubility of water-insoluble coloring compound (visual). The data set is classed as physicochemical. The following applies: organic solvent or mixture, thermodynamic from solid, room temperature. On the procedure:
The solvent solubilities of Compounds (1), (4), (11), (18), (23), (26), and (28) as the water-insoluble coloring compounds and Comparative Compounds (1) and (2) were evaluated by dissolving 30 mg of each compound in 0.7 mL of each solvent, toluene, methanol, ethyl acetate, or chloroform, at room temperature, and visually observing each solution according to the following evaluation criteria:
B: suspended material slightly remained, and […]

The nature of data set [2]: Visual investigation of color filters. The following applies: cyclohexanone-based resist composition. On the procedure:
Color filter resist composition (1) of the present invention was prepared by slowly adding 22 parts of Ink (A) to a solution of 6.7 parts of an acrylic copolymer composition (weight average molecular weight Mw: 10000) composed of 40% by mass of n-butyl methacrylate, 30% by mass of acrylic acid, and 30% by mass of hydroxyethyl methacrylate in monomer ratios, 1.3 parts of dipentaerythritol pentaacrylate, and 0.4 parts of 2-benzyl-2-dimethylamino-1-(4-morpholinophenyl)-butanone (photopolymerization initiator) in 96 parts of cyclohexanone, stirring the mixture at room temperature for 3 hours, and filtering the reaction solution through a filter of 1.5 μm pore size.
Color filter (1) was produced by spin-coating color filter resist composition (1) on a glass substrate and then drying at 90° C. for 3 min, exposure of the entire surface to light, and post-curing at 180° C.

Setting [3] is: 30 mg in 0.7 mL chloroform, read-out: Solubility Chloroform.
The mark [4] stands for this setting: 30 mg in 0.7 mL ethyl acetate, read-out: Solubility Ethyl acetate.
[5] abbreviates: 30 mg in 0.7 mL methanol, read-out: Solubility Methanol.
The mark [6] stands for this setting: 30 mg in 0.7 mL toluene, read-out: Solubility Toluene.

Like-named read-outs stand apart in the source and are kept apart here. Some results are limits rather than exact numbers.

In general, solubility refers to the dissolved amount per volume that the medium holds. On to `CCCCC(CC)CN(CC(CC)CCCC)C(=O)c1cccc(/N=N/c2c(O)[nH]c(=O)c(C(=O)OCC)c2C)c1` (centres unmarked) [Compound 11], for which the solubility in data set [1] (setting [3]), in data set [1] (setting [4]), in data set [1] (setting [5]) and in data set [1] (setting [6]) was > 42.9 mg/mL in each case. The “solvent solubility (demonstrated by spin-coating uniformity)” value (from here on “solvent solubility”) in data set [2] is “high solvent solubilities”.
Regarding `CCCCC(CC)CN(CC(CC)CCCC)C(=O)c1ccc(/N=N/c2c(O)[nH]c(=O)c(C(=O)OCC)c2C)cc1` (centres unmarked) [Compound 18], the solubility in data set [1] (setting [3]), in data set [1] (setting [4]), in data set [1] (setting [5]) and in data set [1] (setting [6]) was > 42.9 mg/mL in each case. For the same compound, the “solvent solubility” value in data set [2] is listed as “high solvent solubilities”.
For `CCCCC(CC)CN(CC(CC)CCCC)C(=O)c1ccc(/N=N/c2c(O)[nH]c(=O)c(C#N)c2C)cc1` (centres unmarked) [compound 2, reference compound], the solubility in data set [1] (setting [3]), in data set [1] (setting [4]), in data set [1] (setting [5]) and in data set [1] (setting [6]) was < 42.9 mg/mL in each case. Moreover, the “solvent solubility” value in data set [2] was “poor solvent solubilities”.
For the compound `CCCCC(CC)CN(CC(CC)CCCC)C(=O)c1ccccc1/N=N/c1c(O)[nH]c(=O)c(C(=O)NC(C)(C)C)c1C` (centres unmarked) [Compound 23], the solubility in data set [1] (setting [3]), in data set [1] (setting [4]), in data set [1] (setting [5]) and in data set [1] (setting [6]) was > 42.9 mg/mL each time.
For `CCCCC(CC)CN(CC(CC)CCCC)S(=O)(=O)c1ccccc1/N=N/c1c(O)[nH]c(=O)c(C(=O)OCC)c1C` (centres unmarked) [Compound 4], the solubility in data set [1] (setting [3]), in data set [1] (setting [4]), in data set [1] (setting [5]) and in data set [1] (setting [6]) was > 42.9 mg/mL in each case.
For `CCCCC(CC)CN(CC(CC)CCCC)C(=O)c1ccccc1/N=N/c1c(O)[nH]c(=O)c(C(=O)OCC)c1C` (centres unmarked) [Compound 1], the solubility in data set [1] (setting [3]), in data set [1] (setting [4]), in data set [1] (setting [5]) and in data set [1] (setting [6]) was > 42.9 mg/mL in each case. The “solvent solubility” value in data set [2] is on record as “high solvent solubilities”.
As for `CCCCC(CC)CN(CC(CC)CCCC)S(=O)(=O)c1ccc(/N=N/c2c(O)[nH]c(=O)c(C#N)c2C)cc1` (centres unmarked) [compound 1, reference compound], the solubility in data set [1] (setting [3]), in data set [1] (setting [4]), in data set [1] (setting [5]) and in data set [1] (setting [6]) was < 42.9 mg/mL throughout. Also, the “solvent solubility” value in data set [2] was “poor solvent solubilities”.
Regarding `CCCCCc1c(/N=N/c2ccccc2C(=O)N(CC(CC)CCCC)CC(CC)CCCC)c(O)[nH]c(=O)c1C(=O)N1CCCCC1` (centres unmarked) [Compound 26], the solubility in data set [1] (setting [3]), in data set [1] (setting [4]), in data set [1] (setting [5]) and in data set [1] (setting [6]) was > 42.9 mg/mL in each case.
`CCOC(=O)c1c(C)c(/N=N/c2ccccc2C(=O)N(C2CCCCC2)C2CCCCC2)c(O)[nH]c1=O` [Compound 28]: the solubility in data set [1] (setting [3]), in data set [1] (setting [4]), in data set [1] (setting [5]) and in data set [1] (setting [6]) was > 42.9 mg/mL each time.

The values are drawn from US9388313B2, “Water-insoluble coloring compound, ink, thermal transfer recording sheet, and color filter resist composition” (CANON KABUSHIKI KAISHA, priority 2012, dated 2016).
